From patent US9891237B2, “Fluorescent sensor for metal cation detection based on 2-(2′-hydroxyphenyl)benzazole containing a Schiff base moiety” (priority 2013, dated 2018)

Experiments:
[1] = UV-vis absorption and fluorescence response of 4 to 5 equiv. of different cations
Procedure: (§1) FIG. 2 provides an absorbance spectra of 4 (10 μM) in EtOH/HEPES (10 mM) (1:1) (pH=7.2), upon addition of 5 equiv. of different cations.
(§2) FIG. 3 provides a fluorescence spectra of 4 (10 μM) in EtOH:HEPES=1:1 (pH=7.2) upon addition of 5 equiv. of different ions.
(§3) The ligand 4 gave a weak fluorescence peak at 580 nm (φfl=0.05). […] NIR emission was relatively stronger in pure methanol. The green fluorescence turn-on could be easily observed, making it also useful for naked eye detection (FIG. 3). […] In other words, the probe molecule 4 is silent to Cd^2+ cation, as its binding could not remove the phenolic proton (a necessary step to simultaneously shift the emission and turn on the ESIPT for NIR emission).
(§4) In order to clarify the interaction of 4 with different metal ions, the UV-vis absorption and fluorescence spectra of 4 (10 μM in EtOH:H2O=1:1 solutions) were studied by addition of 5 equiv. of different cations.

[2] = UV-vis absorption and fluorescence response of 4 to Cd^2+; type: binding
Procedure: as §1, §2
(§5) The binding property of 4 to Zn^2+ cation was examined in EtOH/HEPES (FIG. 2). As the Zn^2+ cation was added, a new absorption band was generated at about 450 nm.
as §3, §4
When Cd^2+ was used, the interaction pattern appeared to be quite different. […] Therefore, the equilibrium between 6b and 8 might occur without forming the fused rings A-B in 4-Cd. […]

[3] = system: human cancer cells (HepG2) and human umbilical vein endothelial cells (HUVECs); experiment: Confocal fluorescence imaging of intracellular Zn^2+ with sensor 4; type: cell-based
Procedure: FIG. 8A provides confocal fluorescence images of Human mesenchymal stem cells (hMSCs) excited with a 488 laser. The image were collected at bright field on an Olympus FV1000-Filter Confocal Microscopy. a→b: the cells were incubated with dye 4 for 60 mins at 37° C.
FIG. 8B provides confocal fluorescence images of Human mesenchymal stem cells (hMSCs) excited with a 488 laser. The images were collected at green channel (535-565 nm) on an Olympus FV1000-Filter Confocal Microscopy. a→b: the cells were incubated with dye 4 for 60 mins at 37° C.
(§6) FIG. 8C provides confocal fluorescence images of Human mesenchymal stem cells (hMSCs) excited with a 488 laser. The images were collected at bright field on an Olympus FV1000-Filter Confocal Microscopy. c→d: the cells were first treated with Zn(OAc)2 (30 μM) for 30 mins and further exposed to dye 4 (10 μM) for another 60 mins at 37° C.
as §6, with “8D” for “8C”, “green channel (535-565 nm)” for “at bright field”, “Microscopy.” for “Microscopy. c→d:”
To illustrate the potential biological application, sensor 4 was applied to visualize intracellular Zn^2+ in both human cancer cells (HepG2) and human umbilical vein endothelial cells (HUVECs) (See FIGS. 8A-D). FIGS. 8A-D show confocal fluorescence images of Human mesenchymal stem cells (hMSCs) excited with a 488 laser. The images were collected at bright field (a and c) and green channel (535-565 nm; b and d) on an Olympus FV1000-Filter Confocal Microscopy. a→b: the cells were incubated with dye 4 for 60 mins at 37° C.; c→d: the cells were first treated with Zn(OAc)2 (30 μM) for 30 mins and further exposed to dye 4 (10 μM) for another 60 mins at 37° C. For this purpose, cells were first incubated with 30 μM of Zn^2+ for 30 mins and then further treated with 10 μM dye 4 for another […]. […]

[4] = Fluorescence of free ligand 4; type: physicochemical
Procedure: as §2, §3, §4

[5] = UV-vis absorption and fluorescence response/titration of 4 with Zn^2+ in EtOH/HEPES; type: binding
Procedure: as §1, §2, §5, §3, §4
A It is important to note that, while the ligand 4 can bind Zn^2+ cation well, the same is not true for the Cd^2+ cation, although the atomic configuration ([Ar]3d^10 for Zn^2+ and [Kr]4d^10 for Cd^2+). On the basis of quick disappearance of the —OH signal at ˜10 ppm (^1H NMR in FIG. 5), the initial step might involve a weak interaction of metal cation with the imine —CH═N—, forming intermediate 5. […] The Zn^2+ cation in 6a could further interact with the adjacent hydroxyl group to form the fused 6-membered ring “B”, which requires twisting of the “HBO” fragment from the Schiff base fragment (ring A).

[6] = Absorption, emission and Stokes' shift of ligands and their zinc complexes (Table 1); type: physicochemical
[7] = UV-vis absorption and fluorescence response of 4 to Al^3+
Procedure: as §1, §2, §5, §3, §4

[8] = UV-vis and fluorescence response of sensor 1 to Al^3+ in H2O:EtOH=8:2
Text: (§7) (Cr: ΦF=0.63; Al: ΦF=0.31).

[9] = system: human mesenchymal stem cells (hMSCs); experiment: Confocal fluorescence imaging of intracellular Cr^3+ and Al^3+ with sensor 1; type: cell-based
Text: FIG. 15A provides a confocal fluorescence images of Human mesenchymal stem cells (hMSCs) excited with a Diode laser (405 nm) on an Olympus FV-1000 laser scanning microscope. The images were collected at bright field. […]
FIG. 15B provides a confocal fluorescence images of Human mesenchymal stem cells (hMSCs) excited with a Diode laser (405 nm) on an Olympus FV-1000 laser scanning microscope. The images were collected at bright field. […] 15E was collected from 535-565 nm.
FIG. 15C provides a confocal fluorescence images of Human mesenchymal stem cells (hMSCs) excited with a Diode laser (405 nm) on an Olympus FV-1000 laser scanning microscope. The images were collected at bright field. […] 15F was collected from 505-525 nm
FIG. 15D provides a confocal fluorescence images of Human mesenchymal stem cells (hMSCs) excited with a Diode laser (405 nm) on an Olympus FV-1000 laser scanning microscope. The images were collected fluorescent channels. […]
FIG. 15E provides a confocal fluorescence images of Human mesenchymal stem cells (hMSCs) excited with a Diode laser (405 nm) on an Olympus FV-1000 laser scanning microscope. The images were collected fluorescent channels. […] 15E was collected from 535-565 nm.
FIG. 15F provides a confocal fluorescence images of Human mesenchymal stem cells (hMSCs) excited with a Diode laser (405 nm) on an Olympus FV-1000 laser scanning microscope. The images were collected fluorescent channels. […] 15F was collected from 505-525 nm
The potential application of 1 for both Cr^3+ and Al^3+ in biological samples was examined by using confocal fluorescence microscopy. […] Bright-field measurements confirmed that the cells, after being treated with Cr^3+/Al^3+ and 1, were viable throughout the imaging experiments. […] Response to Cr^3+ and Al^3+ ions with distinctly different colors (yellow-green and cyan, respectively) from the cell samples raised the prospect that the Cr^3+ and Al^3+ ions could be simultaneously determined and distinguished

[10] = UV-vis and fluorescence response of sensor 1 to mono- and divalent metal ions
Text: as §7

[11] = Fluorescence response of sensor 1 to Fe^3+ in H2O:EtOH=8:2
Text: as §7

[12] = Absorption and fluorescence of free sensor 1 in aqueous medium; type: physicochemical
Procedure: Sensor 1 was synthesized by refluxing the corresponding dialdehyde (as described in W. Chen, Y. Xing, and Y. Pang, Org. Lett., 2011, 13, 1262) with hydrazinopyridine in EtOH for 2 hours, and was collected as yellow solid in >90% yield.
as §7

[13] = 10 μM in EtOH:H2O=1:1, 5 equiv.

Cc1ccc2nc(-c3cc(O)c(C=NNc4ccccn4)cc3O)oc2c1 [Sensor 4]
dual emission on addition of other cations (K^+, Na^+, Ag^+, Cd^2+, Ca^2+, Mg^2+, Pb^2+, Ni^2+, Hg^2+, Co^2+, Cu^2+, Cr^3+, Fe^3+, Al^3+) [1]: did not induce the dual emissions at 545 and 720 nm | fluorescence effect of Ag^+, Co^2+, Ni^2+ and Cu^2+ [1, 13]: quenched the fluorescence | fluorescence effect of Cr^3+, Fe^3+ and Al^3+ [1, 13]: slightly increased the fluorescence | red shift of fluorescence signal on addition of Cr^3+, Fe^3+ and Al^3+ [1, 13]: 25-37 nm | response to K^+, Na^+, Ca^2+ ions [1, 13]: no response | fluorescence response to Cd^2+ cation [2, 13]: no observable fluorescence response | binding to Cd^2+ cation ([2]; absorption, EtOH/HEPES): weak binding | cell permeability [3]: permeable to cells | fluorescence in cells treated with Zn^2+ and the dye ([3]; 30 μM Zn^2+ 30 mins, then 10 μM dye): strong fluorescence | fluorescence in cells treated with only the dye ([3]; dye only, green channel 535-565 nm, 488 laser): very weak fluorescence | fluorescence peak of the ligand [4]: 580 nm | φfl [4]: 0.05 | φfl upon addition of Zn^2+ ([5]; 1:1 EtOH/H2O): 0.26 | new absorption band upon Zn^2+ addition ([5]; EtOH/HEPES): about 450 nm | association constant Ka ([5]; from the fluorescence titration data): 228000 M⁻¹ | Stokes' shift of NIR emission ([5]; upon Zn^2+ binding): ~260 nm | NIR emission peak upon addition of Zn^2+ (keto tautomer) ([5]; upon addition of Zn^2+): ~720 nm | emission peak upon addition of Zn^2+ (enol tautomer) ([5]; upon addition of Zn^2+): 545 nm | selectivity toward Zn^2+ binding ([5]; versus other cations): excellent selectivity | Absorption λmax (nm) [6]: 413 nm | Stokes' shift [6]: 6971 cm⁻¹ | Emission λem (nm) ([6]; first or only emission peak): 580 nm | Stokes' shift ([6]; value in brackets): 167 nm | enhanced emission induced by Al^3+ [7]: ~610 nm | bathochromic shift of absorption on addition of other cations such as Al^3+ ([7]; EtOH/HEPES): did not cause a notable bathochromic shift

Oc1c(C=NNc2ccccn2)cc(C=NNc2ccccn2)cc1-c1nc2ccccc2o1 [Sensor 1]
Stokes' shift of the Al^3+ complex emission [8]: 170 nm | stability of fluorescence with Al^3+ over time [8]: quite stable | fluorescence response upon addition of Al^3+ ([8]; H2O:EtOH=8:2): immediate fluorescence turn-on | ΦF with Al^3+ ([8]; H2O:EtOH=8:2): 0.31 | emission λem with Al^3+ ([8]; H2O:EtOH=8:2, blue-green): ~527 nm | cell permeability [9]: permeable to cells | intracellular fluorescence, control without added metal ions ([9]; 10 μM dye): negligible intracellular fluorescence | cell viability during imaging (bright-field) ([9]; after treatment with Cr^3+/Al^3+ and 1): viable | intracellular fluorescence after Al^3+ ([9]; then 10 μM sensor 30 minutes): significant increase in the fluorescence | intracellular fluorescence after Cr^3+ ([9]; then 10 μM sensor 30 minutes): significant increase in the fluorescence | Stokes' shift of the Cr^3+ complex emission: 195 nm | new π-π* absorption band upon addition of Cr^3+: about 358 nm | selectivity as chemosensor for Cr^3+ (10 equiv. other metal ions, then 10 equiv. Cr^3+): highly selective | fluorescence response upon addition of Cr^3+ (H2O:EtOH=8:2): immediate fluorescence turn-on | ΦF with Cr^3+ (H2O:EtOH=8:2): 0.63 | emission λem with Cr^3+ (H2O:EtOH=8:2, yellow green): ~556 nm | fluorescence effect of Mn^2+, Ni^2+, Pb^2+, Ba^2+, Ag^+, Hg^2+ ([10]; 10 equiv.): slight quenching | response to Ca^2+, Mg^2+, Na^+ and K^+ ([10]; 10 equiv.): negligible response | change in UV-vis spectra on addition of M^+ and M^2+ cations ([10]; 10 equiv., except Cu^2+): almost no change | fluorescence effect of Cu^2+ ([10]; 10 equivalents): quenched the fluorescence | fluorescence change on addition of divalent metal ions ([10]; 10 equivalents, H2O:EtOH=8:2, except Cu^2+): negligible fluorescence change | fluorescence response upon addition of Fe^3+ [11]: immediate fluorescence turn-on | time to quenching of fluorescence with Fe^3+ [11]: ≤ 5 min | absorption major peak (π-π*) [12]: 315 nm | absorption minor peak (n-π*) [12]: 432 nm | Stokes' shift ([12]; free sensor, H2O:EtOH=8:2): 180 nm | ΦF ([12]; free sensor, H2O:EtOH=8:2): 0.1
